Earlier results on one compound are cited in patent US7989405B2, “Prevention of microbial growth in metal working fluids” (Illinois Tool Works Inc., priority 2001, dated 2011).

In one data set the test system is Fusarium moniliforme. The following applies: Fungal: Fusarium moniliforme.
For another data set, the system named is Pseudomonas aeruginosa. The following applies: Bacterial: Pseudomonas aeruginosa.
The test system of a further data set is Aspergillus niger. The following applies: Fungal: Aspergillus niger.
A further data set has as its system Saccharomyces cerevisiae. The conditions noted are these: Fungal: Saccharomyces cerevisiae.
The next data set has as its system Escherischia coli. The conditions noted are these: Bacterial: Escherischia coli.
The test system of the next data set is Enterobacter aerogenes. The conditions noted are these: Bacterial: Enterobacter aerogenes.
Another data set relates to Staphylococcus aureus. The following applies: Bacterial: Staphylococcus aureus.

`CCC12COCN1COC2` [Bioban CS-1246, 7a-ethyldihydro-1H,3H,5H-oxazolo(3,4-c)oxazole]: the MIC in the data set with Fusarium moniliforme is on record as 125-250 parts per million; in the data set on Pseudomonas aeruginosa it was 800-850 parts per million; in the data set with Aspergillus niger, 65-125 parts per million; in the data set with Saccharomyces cerevisiae, 16-33 parts per million; with Escherischia coli, 450-500 parts per million; in the data set with Enterobacter aerogenes, 250-300 parts per million. The MIC with Staphylococcus aureus is recorded as 200-250 parts per million. Moreover, the “irritation of eyes and skin” value (as supplied) was “irritating to eyes and skin”. Besides, the mutagenicity entry (as supplied) was “non-mutagenic”. Besides, the sensitisation entry (as supplied) is reported as “not a sensitising agent”. Besides, the “toxicity by inhalation and skin contact” value (as supplied) is “harmful by inhalation and in contact with the skin”. The hazard result (at typical use dilutions) is “no hazard”.
